# Measured values: ChEMBL document CHEMBL1208719, “Design and synthesis of 4-[3,5-dioxo-11-oxa-4,9-diazatricyclo[5.3.1.0(2,6)]undec-4-yl]-2-trifluoromethyl-benzonitriles as androgen receptor antagonists” (Bioorg Med Chem Lett, 2010)
# Key:
# Androgen receptor [1] = molecular target: T1, Androgen receptor (Homo sapiens, UniProt P10275); test: Displacement of [3H]DHT from AR in human MDA-MB-453 cells
# T1 sequence (P10275 whole entry): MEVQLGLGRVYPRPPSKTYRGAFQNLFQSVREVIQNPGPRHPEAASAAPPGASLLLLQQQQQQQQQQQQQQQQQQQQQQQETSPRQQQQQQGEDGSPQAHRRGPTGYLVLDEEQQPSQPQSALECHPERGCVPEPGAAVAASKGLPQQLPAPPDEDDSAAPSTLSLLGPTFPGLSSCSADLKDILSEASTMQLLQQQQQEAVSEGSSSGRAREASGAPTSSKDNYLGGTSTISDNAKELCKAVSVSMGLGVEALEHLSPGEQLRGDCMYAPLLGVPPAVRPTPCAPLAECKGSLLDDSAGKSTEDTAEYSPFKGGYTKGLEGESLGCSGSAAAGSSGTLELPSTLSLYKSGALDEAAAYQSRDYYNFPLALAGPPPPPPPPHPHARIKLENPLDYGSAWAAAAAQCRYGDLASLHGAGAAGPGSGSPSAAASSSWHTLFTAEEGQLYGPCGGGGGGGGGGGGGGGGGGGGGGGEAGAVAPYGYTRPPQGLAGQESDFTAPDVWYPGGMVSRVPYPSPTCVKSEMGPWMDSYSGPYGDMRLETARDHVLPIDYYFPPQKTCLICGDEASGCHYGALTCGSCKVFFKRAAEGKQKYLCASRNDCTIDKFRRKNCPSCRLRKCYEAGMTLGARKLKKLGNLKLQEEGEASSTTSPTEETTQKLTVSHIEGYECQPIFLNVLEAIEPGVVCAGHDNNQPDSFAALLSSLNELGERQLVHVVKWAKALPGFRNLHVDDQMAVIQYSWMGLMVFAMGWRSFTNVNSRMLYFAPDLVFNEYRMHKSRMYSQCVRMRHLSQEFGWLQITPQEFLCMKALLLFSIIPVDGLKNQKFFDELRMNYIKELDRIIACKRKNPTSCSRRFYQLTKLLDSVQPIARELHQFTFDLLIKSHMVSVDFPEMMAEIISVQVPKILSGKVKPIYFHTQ
# MDA-MB-435 = test: Cytotoxicity against human MDA-MB-435 cells assessed as inhibition of DHT-induced cell growth at 5 uM; type: functional
# LNCaP = test: Cytotoxicity against human LNCAP cells assessed as inhibition of DHT-induced cell growth at 5 uM; type: functional
# Androgen receptor [2] = molecular target: T1, Androgen receptor
# Description: Antagonist activity at human wild type AR expressed in human MDA-MB-435 cells by transactivation assay
# Androgen receptor [3] = molecular target: T1, Androgen receptor; remark: listed apart in the source
# Description: Antagonist activity at wild type human AR expressed in human LNCAP cells by transactivation assay
# Rattus norvegicus [4] = test: Effect on immature rat prostate weight in rat assessed as ratio of weight of seminal vesicles to full body weight at 30 mg/kg, po qd for 3 days relative to control; type: functional, Prostate gland
# Rattus norvegicus [5] = test: Effect on immature rat prostate weight in rat assessed as ratio of weight of seminal vesicles to full body weight at 1 mg/kg, po qd for 3 days relative to control; type: functional, Prostate gland
# [6] = Metabolic stability in human liver microsomes assessed as compound remaining at 3 uM after 10 mins; type: ADME, Microsome; conditions: read-out: Activity
# [7] = Metabolic stability in rat liver microsomes assessed as compound remaining at 3 uM after 10 mins; type: ADME, Microsome; conditions: read-out: Activity
# [8] = Metabolic stability in mouse liver microsomes assessed as compound remaining at 3 uM after 10 mins; type: ADME, Microsome; conditions: read-out: Activity
SMILES,Ki (Androgen receptor [1]) [nM],inhibition at 5 µM (MDA-MB-435) [%],inhibition at 5 µM (LNCaP) [%],IC50 (Androgen receptor [2]) [nM],IC50 (Androgen receptor [3]) [nM],Activity (Rattus norvegicus [4]) [%],Activity (Rattus norvegicus [5]) [%],"remaining at 10 min, 3 µM [6] [%]","remaining at 10 min, 3 µM [7] [%]","remaining at 10 min, 3 µM [8] [%]"
C[C@]12CN(S(C)(=O)=O)C[C@](C)(O1)[C@@H]1C(=O)N(c3ccc(C#N)c(C(F)(F)F)c3)C(=O)[C@@H]12,56,99,61,205,3510,,,,,
C[C@]12CN(S(=O)(=O)c3ccccc3)C[C@](C)(O1)[C@@H]1C(=O)N(c3ccc(C#N)c(C(F)(F)F)c3)C(=O)[C@@H]12,12,99,91,99,979,,,,,
C[C@]12CNC[C@](C)(O1)[C@@H]1C(=O)N(c3ccc(C#N)c(C(F)(F)F)c3)C(=O)[C@@H]12,21,98,20,128,> 5000,,,,,
CCCN1C[C@@]2(C)O[C@@](C)(C1)[C@@H]1C(=O)N(c3ccc(C#N)c(C(F)(F)F)c3)C(=O)[C@@H]12,14,99,98,14,25,,,,,
CCC(=O)N1C[C@@]2(C)O[C@@](C)(C1)[C@@H]1C(=O)N(c3ccc(C#N)c(C(F)(F)F)c3)C(=O)[C@@H]12,84,95,91,129,549,,,,,
C[C@]12CN(C(=O)c3ccccc3)C[C@](C)(O1)[C@@H]1C(=O)N(c3ccc(C#N)c(C(F)(F)F)c3)C(=O)[C@@H]12,23,99,98,54,177,,,,,
CC(C)C(=O)N1C[C@@]2(C)O[C@@](C)(C1)[C@@H]1C(=O)N(c3ccc(C#N)c(C(F)(F)F)c3)C(=O)[C@@H]12,39,98,72,215,1610,,,,,
CCNC(=O)N1C[C@@]2(C)O[C@@](C)(C1)[C@@H]1C(=O)N(c3ccc(C#N)c(C(F)(F)F)c3)C(=O)[C@@H]12,176,97,76,313,1460,,,,,
C[C@]12CN(S(=O)(=O)c3ccccn3)C[C@](C)(O1)[C@@H]1C(=O)N(c3ccc(C#N)c(C(F)(F)F)c3)C(=O)[C@@H]12,93,98,80,170,1240,,,,,
C[C@]12CN(c3cc(Cl)ncn3)C[C@](C)(O1)[C@@H]1C(=O)N(c3ccc(C#N)c(C(F)(F)F)c3)C(=O)[C@@H]12,3.5,98,100,11,,,,,,
CC(C)NC(=O)N1C[C@@]2(C)O[C@@](C)(C1)[C@@H]1C(=O)N(c3ccc(C#N)c(C(F)(F)F)c3)C(=O)[C@@H]12,98,88,52,876,4600,,,,,
C[C@]12CN(O)C[C@](C)(O1)[C@@H]1C(=O)N(c3ccc(C#N)c(C(F)(F)F)c3)C(=O)[C@@H]12,37,97,79,182,1280,,,,,
CCS(=O)(=O)N1C[C@@]2(C)O[C@@](C)(C1)[C@@H]1C(=O)N(c3ccc(C#N)c(C(F)(F)F)c3)C(=O)[C@@H]12,16,99,90,85,600,,,,,
C[C@]12CN(C(=O)Nc3ccccc3)C[C@](C)(O1)[C@@H]1C(=O)N(c3ccc(C#N)c(C(F)(F)F)c3)C(=O)[C@@H]12,40,99,98,16,123,,,,,
C[C@]12CN(c3ncccn3)C[C@](C)(O1)[C@@H]1C(=O)N(c3ccc(C#N)c(C(F)(F)F)c3)C(=O)[C@@H]12,6.1,99,97,31,377,,,,,
C[C@]12CN(C(=O)Nc3ccc(F)cc3)C[C@](C)(O1)[C@@H]1C(=O)N(c3ccc(C#N)c(C(F)(F)F)c3)C(=O)[C@@H]12,29,99,98,39,104,,,,,
CC(C)OC(=O)N1C[C@@]2(C)O[C@@](C)(C1)[C@@H]1C(=O)N(c3ccc(C#N)c(C(F)(F)F)c3)C(=O)[C@@H]12,11,99,99,12,69,,,,,
CN1C(=O)[C@]2(C)O[C@](C)(C1=O)[C@H]1C(=O)N(c3ccc(C#N)c(C(F)(F)F)c3)C(=O)[C@H]12,20,,,2140,> 5000,,,,,
CCCOC(=O)N1C[C@@]2(C)O[C@@](C)(C1)[C@@H]1C(=O)N(c3ccc(C#N)c(C(F)(F)F)c3)C(=O)[C@@H]12,6.6,99,99,9.3,54,,,,,
CCOC(=O)N1C[C@@]2(C)O[C@@](C)(C1)[C@@H]1C(=O)N(c3ccc(C#N)c(C(F)(F)F)c3)C(=O)[C@@H]12,5.7,99,93,65,590,,,,,
CC(C)[N+]1([O-])C(=O)[C@]2(C)O[C@](C)(C1=O)[C@H]1C(=O)N(c3ccc(C#N)c(C(F)(F)F)c3)C(=O)[C@H]12 (some centres not stated),3600,58,,3900,5000,,,,,
C[C@]12O[C@](C)(C(=O)N(CC3CC3)C1=O)[C@H]1C(=O)N(c3ccc(C#N)c(C(F)(F)F)c3)C(=O)[C@H]12,50,,,873,3330,,,,,
C[C@]12CN(c3cccc(S(C)(=O)=O)c3)C[C@](C)(O1)[C@@H]1C(=O)N(c3ccc(C#N)c(C(F)(F)F)c3)C(=O)[C@@H]12,9.4,96,98,7.4,150,28,37,76,100,92
C[C@]12CN(c3cccc(C(N)=O)c3)C[C@](C)(O1)[C@@H]1C(=O)N(c3ccc(C#N)c(C(F)(F)F)c3)C(=O)[C@@H]12,9,98,99,,127,,,,,
CC(C)N1C(=O)[C@]2(C)O[C@](C)(C1=O)[C@H]1C(=O)N(c3ccc(C#N)c(C(F)(F)F)c3)C(=O)[C@H]12,14,99,99,32,125,,,,,
C[C@]12CN(C(=O)C3CC3)C[C@](C)(O1)[C@@H]1C(=O)N(c3ccc(C#N)c(C(F)(F)F)c3)C(=O)[C@@H]12,36,99,95,,404,,,,,
C[C@]12CN(c3cccc(S(N)(=O)=O)c3)C[C@](C)(O1)[C@@H]1C(=O)N(c3ccc(C#N)c(C(F)(F)F)c3)C(=O)[C@@H]12,22,99,94,37,337,,,,,
C[C@]12CN(S(=O)(=O)c3ccc(F)cc3)C[C@](C)(O1)[C@@H]1C(=O)N(c3ccc(C#N)c(C(F)(F)F)c3)C(=O)[C@@H]12,32,100,95,54,685,,,,,
CON1C[C@@]2(C)O[C@@](C)(C1)[C@@H]1C(=O)N(c3ccc(C#N)c(C(F)(F)F)c3)C(=O)[C@@H]12,3.7,99,72,24,179,,,,,
